Patent US6841519B1, “Isoxazoline derivatives and herbicides containing the same as the active ingredient” (Kumiai Chemical Industry Co., Ltd., priority 1999, dated 2005)

Assays:
[1] = tested on: Echinochloa oryzicola Vasing. (Eo); experiment: Test for herbicidal effect by paddy field soil treatment (Test Example 1); format: in vivo; conditions: application amount (active ingredient) 100 g/10 a, examined at the 21st day from the treatment, index per Table 40
Procedure, shortened: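 Scored on a standard scale at day 21 in the greenhouse: herbicidal effect of wettable powder applied to flooded water (3 cm depth) at 100 g a.i./10 ares, one day after sowing Eo into puddled paddy soil.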

[2] = tested on: Echinochloa crus-galli (L.) Beauv. var. crusgall (Ec); experiment: Test for herbicidal effect by upland field soil treatment (Test Example 2), Ec; format: in vivo; conditions: application amount (active ingredient) 100 g/10 a, examined at the 21st day from the treatment, index per Table 40
Procedure, shortened: (§1)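 Pre-emergence soil treatment: wettable powder diluted in water and sprayed on soil just sown with Ec and Se seeds, delivering 100 g active ingredient per 10 ares in 100 liters per 10 ares. Herbicidal effect was rated against a fixed scale 21 days later, after greenhouse growth.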

[3] = tested on: Setaria viridis (L.) Beauv. (Se); experiment: Test for herbicidal effect by upland field soil treatment (Test Example 2), Se; format: in vivo; conditions: application amount (active ingredient) 100 g/10 a, examined at the 21st day from the treatment, index per Table 40
Procedure, shortened: as §1

[4] = tested on: Echinochloa crus-galli (L.) Beauv. var. crusgalli (Ec); experiment: Test for herbicidal effect by upland foliage treatment (Test Example 3); format: in vivo; conditions: 100 g/10 a active ingredient, examined at 14th day
Procedure, shortened: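 Scored 14 days post-spray against a graded standard: greenhouse-grown Ec, 2 weeks old in upland soil, received whole-foliage application of diluted wettable powder (100 g active ingredient per 10 ares, spray volume 100 L per 10 ares).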

[5] = tested on: Monochoria vaginalis Presl (Mo); experiment: Test for herbicidal effect during breeding period by paddy field water treatment (Test Example 5), Mo; format: in vivo; conditions: paddy field water treatment at 1-leaf stage, 25 g/10 a active ingredient, 30th day
Description: (§2) [table] <Test Example 5> Test For Herbicidal Effect During Breeding Period By Paddy Field Water Treatment A paddy field soil was filled in a plastic pot of 100 cm^2 and subjected to puddling. Seeds of Monochoria vaginalis Presl (Mo) and Scirpus juncoides Roxb. subsp. juncoides Roxb. (Sc) were sowed; water was filled in a depth of 3 cm; and breeding was made. When Mo reached a 1-leaf stage and Sc reached a 2-leaf stage, wettable powders produced in accordance with the Formulation 1 were diluted with water and dropped on the water surface. […] Then, breeding was made in a greenhouse. At the 30th day from the treatment, the herbicidal effect of each wettable powder was examined in accordance with the standard shown in Table 40.

[6] = tested on: Scirpus juncoides Roxb. subsp. juncoides Roxb. (Sc); experiment: Test for herbicidal effect during breeding period by paddy field water treatment (Test Example 5), Sc; format: in vivo; conditions: paddy field water treatment at 2-leaf stage, 25 g/10 a active ingredient, 30th day
Description: as §2

[7] = tested on: Polygonum lapathifolium L. subsp. nodosum (Pers.) Kitam. (Po); experiment: Test for herbicidal effect to broadleaf weeds by upland field soil treatment (Test Example 6), Po; format: in vivo; conditions: 25 g/10 a active ingredient, 30th day
Description: (§3) Test for herbicidal effect to broadleaf weeds by upland field soil treatment
(§4) An upland field soil was filled in a plastic pot of 80 cm^2. Seeds of Polygonum lapathifolium L. subsp. nodosum (Pers.) Kitam. (Po) and Chenopodium album L. (Ch) were sowed, followed by covering with the same soil. Wettable powders produced in accordance with the Formulation 1 were diluted with water and sprayed uniformly on the soil surface using a small sprayer, […] Then, breeding was made in a greenhouse. At the 30th day from the treatment, the herbicidal effect of each wettable powder was examined in accordance with the standard shown in Table 40.

[8] = tested on: Chenopodium album L. (Ch); experiment: Test for herbicidal effect to broadleaf weeds by upland field soil treatment (Test Example 6), Ch; format: in vivo; conditions: 25 g/10 a active ingredient, 30th day
Description: as §3, §4

| Structure (SMILES) | Herbicidal effect to Eo [1] | Herbicidal effect to Ec [2] | Herbicidal effect to Se [3] | melting point | Herbicidal effect to Ec [4] | Herbicidal effect to Mo [5] | Herbicidal effect to Sc [6] | Herbicidal effect to Po [7] | Herbicidal effect to Ch [8] |
| --- | --- | --- | --- | --- | --- | --- | --- | --- | --- |
| CC1(C)CC(SCc2c(F)cccc2F)=NO1 [Compound 1-38, 3-(2,6-difluorobenzylthio)-5,5-dimethyl-2-isoxazoline] | 5 (A herbicidal effect or phytotoxicity of 90% or more) | 4 (A herbicidal effect or phytotoxicity of 70% to less than 90%) | 4 (A herbicidal effect or phytotoxicity of 70% to less than 90%) | 77 to 80 °C | – | – | – | – | – |
| CC1(C)CC(S(=O)(=O)Cc2c(F)cccc2F)=NO1 [Compound 1-39, 3-(2,6-difluorobenzylsulfonyl)-5,5-dimethyl-2-isoxazoline] | 5 (A herbicidal effect or phytotoxicity of 90% or more) | 5 (A herbicidal effect or phytotoxicity of 90% or more) | 5 (A herbicidal effect or phytotoxicity of 90% or more) | – | 5 (A herbicidal effect or phytotoxicity of 90% or more) | 5 (A herbicidal effect or phytotoxicity of 90% or more) | 5 (A herbicidal effect or phytotoxicity of 90% or more) | 4 (A herbicidal effect or phytotoxicity of 70% to less than 90%) | 5 (A herbicidal effect or phytotoxicity of 90% or more) |
| CC1(C)CC(S(C)(=O)=O)=NO1 [Compound 2-1, 3-methylsulfonyl-5,5-dimethyl-2-isoxazoline] | – | – | – | 82 to 84 °C | – | – | – | – | – |
